Data on nine compounds can be found in patent publication US8686113B2 (priority 2009, dated 2014).

Values after ≈ are worked out from the molar mass of the structure shown. Non-standard residues stand in square brackets, D forms with d. Residues, ends and D or L forms follow the SMILES beside them. hArg = N=C(N)NCCCC[C@H](N)C(=O)O; β3hR = N=C(N)NCCC[C@H](N)CC(=O)O; Agp = N=C(N)NC[C@H](N)C(=O)O; Orn = NCCC[C@H](N)C(=O)O

In one test the test system is E. coli BL21 A1. The class given is cell-based, Escherichia coli. The note with it: BL21, 20 h. The procedure:
(§1) The minimum inhibitory concentrations (MIC) of the antimicrobial peptides and peptide derivatives were determined in microdilution assays. These used a continuous peptide dilution in sterile flat-bottomed 96-well microtiter plates (polystyrene, Greiner Bio-One GmbH, Frickenhausen, Germany) and a total volume of 100 μL per well. The aqueous peptide or peptidomimetic solutions were diluted with 1% TSB water, to obtain a final concentration of 256 μg/mL. 50 μL of the peptide or peptidomimetic solution was pipetted into the first well of each series and stirred. From this solution, 50 μL was transferred to the second well, stirred and again 50 μL was transferred to the next well, and so on. A double dilution series is obtained, beginning at 256 μg/mL in the first well to 125 ng/mL in the twelfth well. The bacteria, e.g. E. coli BL21 A1, were cultured overnight at 37° C. in nutrient broth (NB, Carl Roth GmbH+Co. KG, Karlsruhe, Germany). 50 μL of a 5×10^6 bacteria/mL suspension in 1% TSB was added to each well of the microtiter plate and thus a final concentration of the peptides or peptidomimetics from 128 μg/mL (well 1) to 62.5 ng/mL (well 12) was established in each series. The plates were incubated at 37° C. for 20 h and then the absorption was measured at 595 nm with a TECAN microtiter plate spectrophotometer (Tecan Trading AG, Mannedorf, Switzerland). The MIC values of all peptides and peptidomimetics were determined in triplicate. Sterile water was used as negative control. The MIC value represents the lowest peptide concentration at which no bacterial growth is observed after an incubation time of 20 h at 37° C.
(§2) The MIC values of the peptides and peptide derivatives against Escherichia coli BL21 A1 and Micrococcus luteus ATCC 10240 are given in Table 7.

Another test deals with M. luteus 10240. Description: Growth inhibition assay (microdilution MIC). It is filed as cell-based, Micrococcus luteus. Conditions: 10240, 20 h. The procedure:
as §1, §2

Regarding `CC[C@H](C)[C@H](NC(=O)[C@H](CCCNC(=N)N)NC(=O)[C@H](CCCNC(=N)N)NC(=O)[C@@H]1CCCN1C(=O)[C@@H]1CCCN1C(=O)[C@H](CCCNC(=N)N)NC(=O)[C@@H]1CCCN1C(=O)[C@H](CCCNC(=N)N)NC(=O)[C@@H]1CCCN1C(=O)[C@H](CC(C)C)NC(=O)[C@H](Cc1ccc(O)cc1)NC(=O)[C@@H]1CCCN1C(=O)[C@@H]1CCCN1C(=O)[C@H](CCCCN)NC(=O)[C@H](CC(=O)O)NC(=O)[C@@H](N)C(C)C)C(=O)N[C@@H](Cc1ccc(O)cc1)C(=O)N[C@@H](CC(N)=O)C(=O)N[C@@H](CCCCNC(=N)N)C(N)=O` [compound 57] (H-VDKPPYLPRPRPPRRIYN[hArg]-NH2), in the test with E. coli BL21 A1, the “MIC E. coli BL21 A1” value worked out at 8 µg/mL (≈ 3.33 µM). Further, the “MIC M. luteus 10240” value with M. luteus 10240 was 8 µg/mL (≈ 3.33 µM).

As to `CC[C@H](C)[C@H](NC(=O)C[C@H](CCCNC(=N)N)NC(=O)[C@H](CCCNC(=N)N)NC(=O)[C@@H]1CCCN1C(=O)[C@@H]1CCCN1C(=O)[C@H](CCCNC(=N)N)NC(=O)[C@@H]1CCCN1C(=O)[C@H](CCCNC(=N)N)NC(=O)[C@@H]1CCCN1C(=O)[C@H](CC(C)C)NC(=O)[C@H](Cc1ccc(O)cc1)NC(=O)[C@@H]1CCCN1C(=O)[C@@H]1CCCN1C(=O)[C@H](CCCCN)NC(=O)[C@H](CC(=O)O)NC(=O)[C@@H](N)C(C)C)C(=O)N[C@@H](Cc1ccc(O)cc1)C(=O)N[C@@H](CC(N)=O)C(=O)N[C@@H](CCCNC(=N)N)C(N)=O` [compound 62] (H-VDKPPYLPRPRPPR[β3hR]IYNR-NH2), the “MIC E. coli BL21 A1” value against E. coli BL21 A1 was determined as 4 µg/mL (≈ 1.66 µM). Besides, the “MIC M. luteus 10240” value in the test with M. luteus 10240 turned out to be 16 µg/mL (≈ 6.66 µM).

On to `CC[C@H](C)[C@H](NC(=O)[C@H](CNC(=N)N)NC(=O)[C@H](CCCNC(=N)N)NC(=O)[C@@H]1CCCN1C(=O)[C@@H]1CCCN1C(=O)[C@H](CCCNC(=N)N)NC(=O)[C@@H]1CCCN1C(=O)[C@H](CCCNC(=N)N)NC(=O)[C@@H]1CCCN1C(=O)[C@H](CC(C)C)NC(=O)[C@H](Cc1ccc(O)cc1)NC(=O)[C@@H]1CCCN1C(=O)[C@@H]1CCCN1C(=O)[C@H](CCCCN)NC(=O)[C@H](CC(=O)O)NC(=O)[C@@H](N)C(C)C)C(=O)N[C@@H](Cc1ccc(O)cc1)C(=O)N[C@@H](CC(N)=O)C(=O)N[C@@H](CCCCNC(=N)N)C(N)=O` [compound 65] (H-VDKPPYLPRPRPPR[Agp]IYN[hArg]-NH2), for which the “MIC E. coli BL21 A1” value against E. coli BL21 A1 was 4 µg/mL (≈ 1.68 µM). The “MIC M. luteus 10240” value against M. luteus 10240 worked out at 2 µg/mL (≈ 0.842 µM).

Regarding `CC[C@H](C)[C@H](NC(=O)[C@H](CNC(=N)N)NC(=O)[C@H](CCCNC(=N)N)NC(=O)[C@@H]1CCCN1C(=O)[C@@H]1CCCN1C(=O)[C@H](CCCNC(=N)N)NC(=O)[C@@H]1CCCN1C(=O)[C@H](CCCNC(=N)N)NC(=O)[C@@H]1CCCN1C(=O)[C@H](CC(C)C)NC(=O)[C@H](Cc1ccc(O)cc1)NC(=O)[C@@H]1CCCN1C(=O)[C@@H]1CCCN1C(=O)[C@H](CCCCN)NC(=O)[C@H](CC(=O)O)NC(=O)[C@@H](N)C(C)C)C(=O)N[C@@H](Cc1ccc(O)cc1)C(=O)N[C@@H](CC(N)=O)C(=O)N[C@@H](CNC(=N)N)C(N)=O` [compound 66] (H-VDKPPYLPRPRPPR[Agp]IYN[Agp]-NH2), in the test with E. coli BL21 A1, the “MIC E. coli BL21 A1” value turned out to be 8 µg/mL (≈ 3.43 µM). The “MIC M. luteus 10240” value in the test on M. luteus 10240 is 4 µg/mL (≈ 1.71 µM).

Consider `CC[C@H](C)[C@H](NC(=O)[C@H](CCCCNC(=N)N)NC(=O)[C@H](CCCNC(=N)N)NC(=O)[C@@H]1CCCN1C(=O)[C@@H]1CCCN1C(=O)[C@H](CCCNC(=N)N)NC(=O)[C@@H]1CCCN1C(=O)[C@H](CCCNC(=N)N)NC(=O)[C@@H]1CCCN1C(=O)[C@H](CC(C)C)NC(=O)[C@H](Cc1ccc(O)cc1)NC(=O)[C@@H]1CCCN1C(=O)[C@@H]1CCCN1C(=O)[C@H](CCCCN)NC(=O)[C@H](CC(=O)O)NC(=O)[C@@H](N)C(C)C)C(=O)N[C@@H](Cc1ccc(O)cc1)C(=O)N[C@@H](CC(N)=O)C(=O)N[C@@H](CNC(=N)N)C(N)=O` [compound 68] (H-VDKPPYLPRPRPPR[hArg]IYN[Agp]-NH2), for which the “MIC E. coli BL21 A1” value against E. coli BL21 A1 is 4 µg/mL (≈ 1.68 µM). Besides, the “MIC M. luteus 10240” value in the test with M. luteus 10240 came to 4 µg/mL (≈ 1.68 µM).

On to `CC[C@H](C)[C@H](NC(=O)[C@H](CCCN)NC(=O)[C@H](CCCNC(=N)N)NC(=O)[C@@H]1CCCN1C(=O)[C@@H]1CCCN1C(=O)[C@H](CCCNC(=N)N)NC(=O)[C@@H]1CCCN1C(=O)[C@H](CCCNC(=N)N)NC(=O)[C@@H]1CCCN1C(=O)[C@H](CC(C)C)NC(=O)[C@H](Cc1ccc(O)cc1)NC(=O)[C@@H]1CCCN1C(=O)[C@@H]1CCCN1C(=O)[C@H](CCCCN)NC(=O)[C@H](CC(=O)O)NC(=O)[C@@H](N)C(C)C)C(=O)N[C@@H](Cc1ccc(O)cc1)C(=O)N[C@@H](CC(N)=O)C(=O)N[C@@H](CNC(=N)N)C(N)=O` [compound 69] (H-VDKPPYLPRPRPPR[Orn]IYN[Agp]-NH2), for which the “MIC E. coli BL21 A1” value in the test with E. coli BL21 A1 was found to be 4 µg/mL (≈ 1.72 µM). The “MIC M. luteus 10240” value in the test with M. luteus 10240 turned out to be 4 µg/mL (≈ 1.72 µM).

For `CC[C@H](C)[C@H](NC(=O)[C@H](CCCN)NC(=O)[C@H](CCCNC(=N)N)NC(=O)[C@@H]1CCCN1C(=O)[C@@H]1CCCN1C(=O)[C@H](CCCNC(=N)N)NC(=O)[C@@H]1CCCN1C(=O)[C@H](CCCNC(=N)N)NC(=O)[C@@H]1CCCN1C(=O)[C@H](CC(C)C)NC(=O)[C@H](Cc1ccc(O)cc1)NC(=O)[C@@H]1CCCN1C(=O)[C@@H]1CCCN1C(=O)[C@H](CCCCN)NC(=O)[C@H](CC(=O)O)NC(=O)[C@@H](N)C(C)C)C(=O)N[C@@H](Cc1ccc(O)cc1)C(=O)N[C@@H](CC(N)=O)C(=O)N[C@@H](CCCCNC(=N)N)C(N)=O` [compound 70] (H-VDKPPYLPRPRPPR[Orn]IYN[hArg]-NH2), the “MIC E. coli BL21 A1” value against E. coli BL21 A1 was determined as 4 µg/mL (≈ 1.69 µM). In the test with M. luteus 10240, the “MIC M. luteus 10240” value was determined as 4 µg/mL (≈ 1.69 µM).

`CC[C@H](C)[C@H](NC(=O)[C@H](CCCNC(=N)N)NC(=O)[C@H](CCCNC(=N)N)NC(=O)[C@@H]1CCCN1C(=O)[C@@H]1CCCN1C(=O)[C@H](CCCNC(=N)N)NC(=O)[C@@H]1CCCN1C(=O)[C@H](CCCNC(=N)N)NC(=O)[C@@H]1CCCN1C(=O)[C@H](CC(C)C)NC(=O)[C@H](Cc1ccc(O)cc1)NC(=O)[C@@H]1CCCN1C(=O)[C@@H]1CCCN1C(=O)[C@H](CCCCN)NC(=O)[C@H](CC(=O)O)NC(=O)[C@@H](NC(=O)[C@@H](CS)NC(=O)[C@H](C)N)C(C)C)C(=O)N[C@@H](Cc1ccc(O)cc1)C(=O)N[C@@H](CC(N)=O)C(=O)N[C@@H](CCCNC(=N)N)C(=O)O` [compound 80] (H-A[dC]VDKPPYLPRPRPPRRIYNR-OH): the “MIC E. coli BL21 A1” value against E. coli BL21 A1 was more than 256 µg/mL. Moreover, the “MIC M. luteus 10240” value in the test with M. luteus 10240 turned out to be 16 µg/mL (≈ 6.24 µM).

Take `CC[C@H](C)[C@H](NC(=O)[C@H](CCCNC(=N)N)NC(=O)[C@H](CCCNC(=N)N)NC(=O)[C@@H]1CCCN1C(=O)[C@@H]1CCCN1C(=O)[C@H](CCCNC(=N)N)NC(=O)[C@@H]1CCCN1C(=O)[C@H](CCCNC(=N)N)NC(=O)[C@@H]1CCCN1C(=O)[C@H](CC(C)C)NC(=O)[C@H](Cc1ccc(O)cc1)NC(=O)[C@@H]1CCCN1C(=O)[C@@H]1CCCN1C(=O)[C@H](CCCCN)NC(=O)[C@H](CC(=O)O)NC(=O)[C@@H](N)CCCN)C(=O)N[C@@H](Cc1ccc(O)cc1)C(=O)N[C@@H](CC(N)=O)C(=O)N[C@@H](CCCNC(=N)N)C(N)=O` [compound 82] (H-[Orn]DKPPYLPRPRPPRRIYNR-NH2): the “MIC E. coli BL21 A1” value against E. coli BL21 A1 was determined as 8 µg/mL (≈ 3.33 µM). Moreover, the “MIC M. luteus 10240” value in the test with M. luteus 10240 is 8 µg/mL (≈ 3.33 µM).
